Results: the Kinase Knowledgebase extract (Sharma et al. 2016)

Legend:
EGFR (human) [1] = biological target: EGFR (human) (UniProt P00533); conditions: HN5
EGFR (human) [2] = biological target: EGFR (human) (UniProt P00533); conditions: hn5
EGFR (human) [3] = biological target: EGFR (human) (UniProt P00533); conditions: a431
EGFR (human) [4] = biological target: EGFR (human) (UniProt P00533); conditions: caski
EGFR (human) [5] = biological target: EGFR (human) (UniProt P00533); conditions: siha
EGFR (human) [6] = biological target: EGFR (human) (UniProt P00533); conditions: ekvx
EGFR (human) [7] = biological target: EGFR (human) (UniProt P00533); conditions: hop-62
EGFR (human) [8] = biological target: EGFR (human) (UniProt P00533); conditions: h226
EGFR (human) [9] = biological target: EGFR (human) (UniProt P00533); conditions: h23
EGFR (human) [10] = biological target: EGFR (human) (UniProt P00533); conditions: h322m
EGFR (human) [11] = biological target: EGFR (human) (UniProt P00533); conditions: h522
EGFR (human) [12] = biological target: EGFR (human) (UniProt P00533); conditions: colo-205
EGFR (human) [13] = biological target: EGFR (human) (UniProt P00533); conditions: hcc2998
EGFR (human) [14] = biological target: EGFR (human) (UniProt P00533); conditions: hct 116
EGFR (human) [15] = biological target: EGFR (human) (UniProt P00533); conditions: hct-15
EGFR (human) [16] = biological target: EGFR (human) (UniProt P00533); conditions: km-12
EGFR (human) [17] = biological target: EGFR (human) (UniProt P00533); conditions: sw 620
EGFR (human) [18] = biological target: EGFR (human) (UniProt P00533); conditions: sf268
EGFR (human) [19] = biological target: EGFR (human) (UniProt P00533); conditions: sf-539
EGFR (human) [20] = biological target: EGFR (human) (UniProt P00533); conditions: snb-19
EGFR (human) [21] = biological target: EGFR (human) (UniProt P00533); conditions: snb-75
EGFR (human) [22] = biological target: EGFR (human) (UniProt P00533); conditions: lox-imvi
EGFR (human) [23] = biological target: EGFR (human) (UniProt P00533); conditions: malme-3m
EGFR (human) [24] = biological target: EGFR (human) (UniProt P00533); conditions: m14
EGFR (human) [25] = biological target: EGFR (human) (UniProt P00533); conditions: sk-mel-28
EGFR (human) [26] = biological target: EGFR (human) (UniProt P00533); conditions: uacc-257
EGFR (human) [27] = biological target: EGFR (human) (UniProt P00533); conditions: uacc62
EGFR (human) [28] = biological target: EGFR (human) (UniProt P00533); conditions: igr-ovi
EGFR (human) [29] = biological target: EGFR (human) (UniProt P00533); conditions: ovcar-3
EGFR (human) [30] = biological target: EGFR (human) (UniProt P00533); conditions: ovcar-4
EGFR (human) [31] = biological target: EGFR (human) (UniProt P00533); conditions: ovcar-5
EGFR (human) [32] = biological target: EGFR (human) (UniProt P00533); conditions: ovcar-8
EGFR (human) [33] = biological target: EGFR (human) (UniProt P00533); conditions: sk-ov-3
EGFR (human) [34] = biological target: EGFR (human) (UniProt P00533); conditions: 786-0
EGFR (human) [35] = biological target: EGFR (human) (UniProt P00533); conditions: achn
EGFR (human) [36] = biological target: EGFR (human) (UniProt P00533); conditions: rxf-393
EGFR (human) [37] = biological target: EGFR (human) (UniProt P00533); conditions: sn12c
EGFR (human) [38] = biological target: EGFR (human) (UniProt P00533); conditions: tk-10
EGFR (human) [39] = biological target: EGFR (human) (UniProt P00533); conditions: uo-31
EGFR (human) [40] = biological target: EGFR (human) (UniProt P00533); conditions: pc-3
EGFR (human) [41] = biological target: EGFR (human) (UniProt P00533); conditions: uo-31; remark: listed apart in the source
EGFR (human) [42] = biological target: EGFR (human) (UniProt P00533); conditions: mcf7/adr-res
EGFR (human) [43] = biological target: EGFR (human) (UniProt P00533); conditions: mda-mb-231/atcc
EGFR (human) [44] = biological target: EGFR (human) (UniProt P00533); conditions: h7 578t
EGFR (human) [45] = biological target: EGFR (human) (UniProt P00533); conditions: mda-n
EGFR (human) [46] = biological target: EGFR (human) (UniProt P00533); conditions: bt-549
EGFR (human) [47] = biological target: EGFR (human) (UniProt P00533); conditions: t-47d
EGFR (human) [48] = biological target: EGFR (human) (UniProt P00533); conditions: mg-mid
EGFR (human) [49] = biological target: EGFR (human) (UniProt P00533); conditions: sr
EGFR (human) [50] = biological target: EGFR (human) (UniProt P00533); conditions: molt-4

Chain of EGFR (human) (P00533 whole entry, looked up): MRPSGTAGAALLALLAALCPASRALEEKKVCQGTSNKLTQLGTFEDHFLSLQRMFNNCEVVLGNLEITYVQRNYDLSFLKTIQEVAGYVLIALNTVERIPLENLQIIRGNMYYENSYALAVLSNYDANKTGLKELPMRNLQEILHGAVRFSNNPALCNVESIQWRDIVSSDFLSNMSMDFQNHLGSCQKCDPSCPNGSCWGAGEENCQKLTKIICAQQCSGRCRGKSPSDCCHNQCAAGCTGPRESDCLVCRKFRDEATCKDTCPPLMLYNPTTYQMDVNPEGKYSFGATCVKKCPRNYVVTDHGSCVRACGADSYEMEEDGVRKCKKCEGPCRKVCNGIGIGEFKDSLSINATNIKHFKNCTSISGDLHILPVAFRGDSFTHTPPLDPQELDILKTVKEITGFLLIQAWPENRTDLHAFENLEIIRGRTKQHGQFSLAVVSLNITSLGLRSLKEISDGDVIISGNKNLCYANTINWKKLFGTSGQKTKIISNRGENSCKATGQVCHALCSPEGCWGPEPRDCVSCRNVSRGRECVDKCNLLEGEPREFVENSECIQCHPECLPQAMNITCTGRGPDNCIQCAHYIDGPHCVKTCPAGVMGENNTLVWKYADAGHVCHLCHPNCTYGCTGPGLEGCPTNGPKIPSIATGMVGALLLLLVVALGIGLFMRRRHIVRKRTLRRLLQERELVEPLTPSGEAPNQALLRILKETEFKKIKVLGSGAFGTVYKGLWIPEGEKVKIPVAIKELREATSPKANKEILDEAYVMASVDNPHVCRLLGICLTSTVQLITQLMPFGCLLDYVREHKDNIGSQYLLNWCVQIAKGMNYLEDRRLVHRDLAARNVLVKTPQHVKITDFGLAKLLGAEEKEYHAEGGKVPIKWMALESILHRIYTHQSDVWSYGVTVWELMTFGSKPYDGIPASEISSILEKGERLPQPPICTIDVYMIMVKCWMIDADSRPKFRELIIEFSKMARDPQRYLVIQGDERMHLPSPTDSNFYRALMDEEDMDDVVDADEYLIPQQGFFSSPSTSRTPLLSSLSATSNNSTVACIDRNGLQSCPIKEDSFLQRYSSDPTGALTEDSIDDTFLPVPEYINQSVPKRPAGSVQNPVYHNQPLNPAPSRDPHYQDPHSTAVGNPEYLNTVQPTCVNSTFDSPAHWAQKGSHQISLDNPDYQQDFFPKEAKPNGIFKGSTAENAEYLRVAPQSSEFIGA

N#CC(C#N)=C(N)/C(C#N)=C/c1ccc([N+](=O)[O-])s1
Conditions | GI50 [µM] | IC50 [µM]
EGFR (human) [1] | – | 12.2
EGFR (human) [2] | – | 8.4
EGFR (human) [3] | – | 6.07
EGFR (human) [4] | – | 9.24
EGFR (human) [5] | – | 13.4
EGFR (human) [6] | 19.5 | –
EGFR (human) [7] | 19.5 | –
EGFR (human) [8] | 17.8 | –
EGFR (human) [9] | 16.6 | –
EGFR (human) [10] | 20.9 | –
EGFR (human) [11] | 11 | –
EGFR (human) [12] | 15.1 | –
EGFR (human) [13] | 15.8 | –
EGFR (human) [14] | 3.39 | –
EGFR (human) [15] | 17.8 | –
EGFR (human) [16] | 18.2 | –
EGFR (human) [17] | 3.23 | –
EGFR (human) [18] | 22.4 | –
EGFR (human) [19] | 23.4 | –
EGFR (human) [20] | 17.8 | –
EGFR (human) [21] | 14.8 | –
EGFR (human) [22] | 11.5 | –
EGFR (human) [23] | 22.9 | –
EGFR (human) [24] | 12 | –
EGFR (human) [25] | 17 | –
EGFR (human) [26] | 10.5 | –
EGFR (human) [27] | 79.4 | –
EGFR (human) [28] | 7.24 | –
EGFR (human) [29] | 15.5 | –
EGFR (human) [30] | 15.5 | –
EGFR (human) [31] | 26.9 | –
EGFR (human) [32] | 12.6 | –
EGFR (human) [33] | 17.8 | –
EGFR (human) [34] | 19.9 | –
EGFR (human) [35] | 19.9 | –
EGFR (human) [36] | 9.33 | –
EGFR (human) [37] | 13.5 | –
EGFR (human) [38] | 18.2 | –
EGFR (human) [39] | 18.2 | –
EGFR (human) [40] | 19.9 | –
EGFR (human) [41] | 14.8 | –
EGFR (human) [42] | 21.4 | –
EGFR (human) [43] | 17 | –
EGFR (human) [44] | 18.6 | –
EGFR (human) [45] | 4.57 | –
EGFR (human) [46] | 12.9 | –
EGFR (human) [47] | 6.91 | –
EGFR (human) [48] | 13.2 | –
EGFR (human) [49] | 12 | –
EGFR (human) [50] | 5.89 | –

N#CC(C#N)=Cc1csc([N+](=O)[O-])c1
Conditions | GI50 [µM] | IC50 [µM]
EGFR (human) [1] | – | 23
EGFR (human) [2] | – | 40.4
EGFR (human) [3] | – | 28.4
EGFR (human) [4] | – | 40
EGFR (human) [5] | – | 44.6
EGFR (human) [6] | > 100 | –
EGFR (human) [7] | 25.7 | –
EGFR (human) [8] | > 100 | –
EGFR (human) [9] | 30.2 | –
EGFR (human) [10] | 74.1 | –
EGFR (human) [11] | 15.1 | –
EGFR (human) [12] | 27.5 | –
EGFR (human) [13] | 26.9 | –
EGFR (human) [14] | 16.2 | –
EGFR (human) [15] | 33.9 | –
EGFR (human) [16] | 35.5 | –
EGFR (human) [17] | 43.6 | –
EGFR (human) [18] | 38.9 | –
EGFR (human) [19] | 41.7 | –
EGFR (human) [20] | 60.2 | –
EGFR (human) [21] | 25.1 | –
EGFR (human) [22] | 30.9 | –
EGFR (human) [23] | 33.9 | –
EGFR (human) [24] | 17.8 | –
EGFR (human) [25] | 16.2 | –
EGFR (human) [26] | 19 | –
EGFR (human) [27] | 17.8 | –
EGFR (human) [28] | 24 | –
EGFR (human) [29] | 21.9 | –
EGFR (human) [30] | 28.8 | –
EGFR (human) [31] | 59 | –
EGFR (human) [32] | 19.5 | –
EGFR (human) [33] | 59 | –
EGFR (human) [34] | 33.9 | –
EGFR (human) [35] | 19.5 | –
EGFR (human) [36] | 17.4 | –
EGFR (human) [37] | 34.7 | –
EGFR (human) [38] | 45.7 | –
EGFR (human) [39] | 17.8 | –
EGFR (human) [40] | 38 | –
EGFR (human) [41] | 15.1 | –
EGFR (human) [42] | 37.1 | –
EGFR (human) [43] | 26.3 | –
EGFR (human) [44] | 28.2 | –
EGFR (human) [45] | 19.9 | –
EGFR (human) [46] | 27.5 | –
EGFR (human) [47] | 22.9 | –
EGFR (human) [48] | 30.2 | –
EGFR (human) [49] | 30.2 | –
EGFR (human) [50] | 23.4 | –

CCOC(=O)/C(C#N)=C/c1ccc([N+](=O)[O-])s1
Conditions | GI50 [µM] | IC50 [µM]
EGFR (human) [1] | – | 34
EGFR (human) [2] | – | 5.4
EGFR (human) [3] | – | 4.6
EGFR (human) [4] | – | 6.94
EGFR (human) [5] | – | 4.59
EGFR (human) [6] | 15.5 | –
EGFR (human) [7] | 14.8 | –
EGFR (human) [8] | 16.2 | –
EGFR (human) [9] | 2.63 | –
EGFR (human) [10] | 17 | –
EGFR (human) [11] | 1.69 | –
EGFR (human) [12] | 1.62 | –
EGFR (human) [13] | 3.47 | –
EGFR (human) [14] | 1.48 | –
EGFR (human) [15] | 2.19 | –
EGFR (human) [16] | 6.92 | –
EGFR (human) [17] | 1.48 | –
EGFR (human) [18] | 6.16 | –
EGFR (human) [19] | 5.75 | –
EGFR (human) [20] | 14.8 | –
EGFR (human) [21] | 7.58 | –
EGFR (human) [22] | 1.86 | –
EGFR (human) [23] | 2.24 | –
EGFR (human) [24] | 1.74 | –
EGFR (human) [25] | 2.95 | –
EGFR (human) [26] | 2.09 | –
EGFR (human) [27] | 1.35 | –
EGFR (human) [28] | 1.66 | –
EGFR (human) [29] | 2.04 | –
EGFR (human) [30] | 1.7 | –
EGFR (human) [31] | 1.95 | –
EGFR (human) [32] | 1.99 | –
EGFR (human) [33] | 15.5 | –
EGFR (human) [34] | 10.7 | –
EGFR (human) [35] | 1.9 | –
EGFR (human) [36] | 1.7 | –
EGFR (human) [37] | 5.75 | –
EGFR (human) [38] | 3.47 | –
EGFR (human) [39] | 1.86 | –
EGFR (human) [40] | 2.95 | –
EGFR (human) [41] | 10.7 | –
EGFR (human) [42] | 3.47 | –
EGFR (human) [43] | 1.86 | –
EGFR (human) [44] | 3.47 | –
EGFR (human) [45] | 2.19 | –
EGFR (human) [46] | 0.871 | –
EGFR (human) [47] | 2.75 | –
EGFR (human) [48] | 3.47 | –
EGFR (human) [49] | 3.02 | –
EGFR (human) [50] | 1.74 | –
